Reference: patent publication US7348425B2, “Inhibitors of HCV replication” (Bristol-Myers Squibb Company, priority 2004, dated 2008)
Read-outs that look alike come from different tables or passages of the source.

Legend:
[1] = target: T1, HCV NS5B RdRp genotype 1b (Hepatitis C virus genotype 1b, UniProt Q9WMX2); experiment: Modified HCV NS5B RdRp enzyme assay (with preincubation); format: biochemical; details: modified method (with preincubation)
T1 construct: The protein was expressed with an 18 amino acid C-terminal truncation to enhance the solubility; made in house; host or cells: E. coli BL21 (DE3), pET21a
T1 sequence (Q9WMX2 2420-2992): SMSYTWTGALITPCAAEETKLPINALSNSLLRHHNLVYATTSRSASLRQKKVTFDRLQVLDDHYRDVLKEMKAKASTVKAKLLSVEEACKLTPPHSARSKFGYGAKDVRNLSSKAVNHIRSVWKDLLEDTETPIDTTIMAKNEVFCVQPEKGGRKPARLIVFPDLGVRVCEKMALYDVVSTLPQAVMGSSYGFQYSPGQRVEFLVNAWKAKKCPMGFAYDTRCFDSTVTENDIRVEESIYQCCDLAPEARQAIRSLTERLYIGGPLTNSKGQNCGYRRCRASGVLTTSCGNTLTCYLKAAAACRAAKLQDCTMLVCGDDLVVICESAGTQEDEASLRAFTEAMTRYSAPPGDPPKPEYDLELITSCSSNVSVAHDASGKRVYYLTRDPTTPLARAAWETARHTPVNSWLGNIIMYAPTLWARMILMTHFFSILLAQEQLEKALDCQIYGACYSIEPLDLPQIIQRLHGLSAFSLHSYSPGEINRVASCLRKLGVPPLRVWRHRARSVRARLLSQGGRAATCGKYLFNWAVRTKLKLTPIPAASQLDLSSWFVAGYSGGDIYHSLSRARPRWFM
Method in brief: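 Seven-point IC50s were derived from SPA-based ³H-UTP incorporation after 4 h at 30 °C (Hepes pH 7.5, 2% DMSO). Compound was first mixed with 14 nM Δ18 NS5B genotype 1b enzyme. Then 0.2 nM polyA, 0.29 μM UTP and bead-bound oligo-dT12 (20 nM) were added.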

[2] = test system: HCV replicon; experiment: HCV replicon FRET assay; format: cell-based; details: Hepatitis C virus
Method in brief: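 Replicon cells (± Renilla luciferase reporter) incubated with titrated compound at 37 °C; NS3 protease activity read by FRET peptide cleavage (20 uM EDANS/DABCYL substrate, 340/490 nm kinetic) or luciferase.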

Row | SMILES | IC50 [1] [µM] | EC50 ([2]; FRET assay, read-out: EC50) [µM] | EC50 [2] [µM]
1 | CN(C)S(=O)(=O)NC(=O)c1ccc2c(C3CCCCC3)c3n(c2c1)CC(=O)Nc1ccccc1-3 | 0.02 to 1 | 0.01 to 1 | 
2 | COC(=O)c1ccc2c(C3CCCCC3)c3n(c2c1)CC(C(=O)N1C[C@@H](C)O[C@@H](C)C1)=Cc1ccccc1-3 | > 1 | 1 to 10 | 
3 | C[C@@H]1CN(C(=O)C2=Cc3ccccc3-c3c(C4CCCCC4)c4ccc(C(=O)O)cc4n3C2)C[C@H](C)O1 | 0.02 to 1 | 0.01 to 1 | 
4 | C[C@@H]1CN(C(=O)C2=Cc3ccccc3-c3c(C4CCCCC4)c4ccc(C(=O)NS(=O)(=O)N(C)C)cc4n3C2)C[C@H](C)O1 | 0.02 to 1 | 0.01 to 1 | 
5 | COC(=O)C1=Cc2ccncc2-c2c(C3CCCCC3)c3ccc(C(=O)OC)cc3n2C1 | > 1 | 1 to 10 | 
6 | COC(=O)C1=Cc2cccnc2-c2c(C3CCCCC3)c3ccc(C(=O)OC)cc3n2C1 | > 1 | 1 to 10 | 
7 | COC(=O)c1ccc2c(C3CCCCC3)c3n(c2c1)CC(C(=O)N1CCOCC1)=Cc1cccnc1-3 | > 1 | 1 to 10 | 
8 | COC(=O)c1ccc2c(C3CCCCC3)c3n(c2c1)CC(C(=O)N1CCOCC1)=Cc1ccncc1-3 | > 1 | 1 to 10 | 
9 | O=C(O)c1ccc2c(C3CCCCC3)c3n(c2c1)CC(C(=O)N1CCOCC1)=Cc1cccnc1-3 | 0.02 to 1 | 0.01 to 1 | 
10 | O=C(NS(=O)(=O)C1CC1)c1ccc2c(C3CCCCC3)c3n(c2c1)CC(C(=O)N1CCOCC1)=Cc1ccccc1-3 | 0.02 to 1 | 0.01 to 1 | 
11 | CS(=O)(=O)NC(=O)c1ccc2c(C3CCCCC3)c3n(c2c1)CC(C(=O)N1CCOCC1)=Cc1ccccc1-3 | 0.02 to 1 | 0.01 to 1 | 
12 | O=C(O)c1ccc2c(C3CCCCC3)c3n(c2c1)CC(C(=O)N1CCOCC1)Cc1cccnc1-3 (stereo not drawn) | 0.02 to 1 | 1 to 10 | 
13 | CN(C)S(=O)(=O)NC(=O)c1ccc2c(C3CCCCC3)c3n(c2c1)CC(C(=O)N1CCOCC1)=Cc1cccnc1-3 | 0.02 to 1 | 0.01 to 1 | 
14 | COC(=O)c1ccc2c(C3CCCCC3)c3n(c2c1)CC(N1CCOCC1)Cc1ccccc1-3 (stereo not drawn) | > 1 | 0.01 to 1 | 
15 | O=C(O)c1ccc2c(C3CCCCC3)c3n(c2c1)CC(N1CCOCC1)Cc1ccccc1-3 (stereo not drawn) | 0.02 to 1 | 0.01 to 1 | 
16 | COC(=O)c1ccc2c(C3CCCCC3)c3n(c2c1)CC(C(=O)O)=Cc1cc(OC)ccc1-3 | 0.02 to 1 | 1 to 10 | 
17 | COC(=O)c1ccc2c(C3CCCCC3)c3n(c2c1)CC(C(=O)N1CCOCC1)=Cc1cc(OC)ccc1-3 | 0.02 to 1 | 0.01 to 1 | 
18 | COc1ccc2c(c1)C=C(C(=O)N1CCOCC1)Cn1c-2c(C2CCCCC2)c2ccc(C(=O)O)cc21 | 0.02 to 1 | 0.01 to 1 | 
19 | CN(C)S(=O)(=O)NC(=O)c1ccc2c(C3CCCCC3)c3n(c2c1)CC(C(=O)N1CCOCC1)Cc1cccnc1-3 (stereo not drawn) | 0.02 to 1 | 0.01 to 1 | 
20 | O=C(O)c1ccc2c(C3CCCCC3)c3n(c2c1)CC(C(=O)N1CCOCC1)=Cc1ccncc1-3 | 0.02 to 1 | 1 to 10 | 
21 | O=C(O)c1ccc2c(C3CCCCC3)c3n(c2c1)C=C(C(=O)N1CCOCC1)Cc1ccncc1-3 | > 1 | > 10 | 
22 | COc1ccc2c(c1)C=C(C(=O)N1CCOCC1)Cn1c-2c(C2CCCCC2)c2ccc(C(=O)NS(=O)(=O)N(C)C)cc21 | 0.02 to 1 |  | 0.01 to 1
23 | CC(C)S(=O)(=O)NC(=O)c1ccc2c(C3CCCCC3)c3n(c2c1)CC(C(=O)N1CCOCC1)=Cc1ccccc1-3 | 0.02 to 1 | 0.01 to 1 | 
24 | CCS(=O)(=O)NC(=O)c1ccc2c(C3CCCCC3)c3n(c2c1)CC(C(=O)N1CCOCC1)=Cc1ccccc1-3 | 0.02 to 1 | 0.01 to 1 | 
25 | O=C(NS(=O)(=O)N1CCCC1)c1ccc2c(C3CCCCC3)c3n(c2c1)CC(C(=O)N1CCOCC1)=Cc1ccccc1-3 | 0.02 to 1 | 0.01 to 1 | 
26 | CC(C)(C)S(=O)(=O)NC(=O)c1ccc2c(C3CCCCC3)c3n(c2c1)CC(C(=O)N1CCOCC1)=Cc1ccccc1-3 | 0.02 to 1 | 0.01 to 1 | 
27 | CCS(=O)(=O)NC(=O)c1ccc2c(C3CCCCC3)c3n(c2c1)CC(C(=O)N1CCOCC1)Cc1ccccc1-3 (stereo not drawn) | 0.02 to 1 | 0.01 to 1 | 

Row | SMILES | IC50 [1] [µM] | EC50 ([2]; FRET assay, read-out: EC50) [µM] | EC50 [2] [µM]
28 | CC(C)S(=O)(=O)NC(=O)c1ccc2c(C3CCCCC3)c3n(c2c1)CC(C(=O)N1CCOCC1)Cc1ccccc1-3 (stereo not drawn) | 0.02 to 1 | 0.01 to 1 | 
29 | COc1ccc2c(c1)CC(C(=O)N1CCOCC1)Cn1c-2c(C2CCCCC2)c2ccc(C(=O)O)cc21 (stereo not drawn) | 0.02 to 1 | 0.01 to 1 | 
30 | O=C(NS(=O)(=O)c1ccccc1)c1ccc2c(C3CCCCC3)c3n(c2c1)CC(C(=O)N1CCOCC1)Cc1ccccc1-3 (stereo not drawn) | 0.02 to 1 | 0.01 to 1 | 
31 | COC(=O)C1=Cc2ccccc2-c2c(C3CCCCC3)c3ccc(C(=O)NS(=O)(=O)N(C)C)cc3n2C1 | 0.02 to 1 | 0.01 to 1 | 
32 | COC(=O)c1ccc2c(C3CCCCC3)c3n(c2c1)CC(C(=O)N1CCCOCC1)=Cc1ccccc1-3 | > 1 | 1 to 10 | 
33 | O=C(O)c1ccc2c(C3CCCCC3)c3n(c2c1)CC(C(=O)N1CCCOCC1)=Cc1ccccc1-3 | 0.02 to 1 | 0.01 to 1 | 
34 | CN(C)S(=O)(=O)NC(=O)c1ccc2c(C3CCCCC3)c3n(c2c1)CC(C(=O)O)=Cc1ccccc1-3 | 0.02 to 1 | > 10 | 
35 | O=C(O)/C=C/c1ccc(NC(=O)C2(NC(=O)c3ccc4c(C5CCCCC5)c5n(c4c3)CCNc3ccccc3-5)CCCC2)cc1 | 0.02 to 1 | 0.01 to 1 | 
36 | O=C(O)c1ccc2c(C3CCCCC3)c3n(c2c1)CNc1ccccc1-3 | 0.02 to 1 | 0.01 to 1 | 
37 | COC(=O)c1ccc2c(C3CCCCC3)c3n(c2c1)CNc1ccccc1-3 | > 1 | 0.01 to 1 | 
38 | COC(=O)c1ccc2c(C3CCCCC3)c3n(c2c1)CCNc1ccccc1-3 | > 1 | 0.01 to 1 | 
39 | COC(=O)c1ccc2c(C3CCCCC3)c3n(c2c1)CC(C(=O)N1CCOCC1)Cc1ccncc1-3 (stereo not drawn) | > 1 | 0.01 to 1 | 
40 | O=C(O)c1ccc2c(C3CCCCC3)c3n(c2c1)CC(C(=O)N1CCOCC1)Cc1ccncc1-3 (stereo not drawn) | 0.02 to 1 | 0.01 to 1 | 
41 | CCN(C)S(=O)(=O)NC(=O)c1ccc2c(C3CCCCC3)c3n(c2c1)CC(C(=O)N1CCOCC1)=Cc1ccccc1-3 | 0.02 to 1 | 0.01 to 1 | 
42 | CCN(CC)S(=O)(=O)NC(=O)c1ccc2c(C3CCCCC3)c3n(c2c1)CC(C(=O)N1CCOCC1)=Cc1ccccc1-3 | 0.02 to 1 | 0.01 to 1 | 
43 | CC(C)NS(=O)(=O)NC(=O)c1ccc2c(C3CCCCC3)c3n(c2c1)CC(C(=O)N1CCOCC1)=Cc1ccccc1-3 | 0.02 to 1 | 0.01 to 1 | 
44 | O=C(NS(=O)(=O)N1CCCC1)c1ccc2c(C3CCCCC3)c3n(c2c1)CC(C(=O)N1CCOCC1)Cc1ccccc1-3 (stereo not drawn) | 0.02 to 1 | 0.01 to 1 | 
45 | CN(C)S(=O)(=O)NC(=O)c1ccc2c(C3CCCCC3)c3n(c2c1)CC(C(=O)N1CCNCC1)=Cc1ccccc1-3 | 0.02 to 1 | 0.01 to 1 | 
46 | CC(C)(C)OC(=O)N1CCn2c(c(C3CCCCC3)c3ccc(C(=O)O)cc32)-c2ccccc21 | 0.02 to 1 | 1 to 10 | 
47 | CN(C)S(=O)(=O)NC(=O)c1ccc2c(C3CCCCC3)c3n(c2c1)CCN(C(=O)OC(C)(C)C)c1ccccc1-3 | 0.02 to 1 | 0.01 to 1 | 
48 | CN(C)S(=O)(=O)NC(=O)c1ccc2c(C3CCCCC3)c3n(c2c1)CCNc1ccccc1-3 | 0.02 to 1 | 0.01 to 1 | 
49 | COC(=O)c1ccc2c(C3CCCCC3)c3n(c2c1)CC(C(=O)O)=Cc1ccc(Cl)cc1-3 | > 1 | 1 to 10 | 
50 | O=C(O)c1ccc2c(C3CCCCC3)c3n(c2c1)CC(C(=O)N1CCOCC1)=Cc1ccc(Cl)cc1-3 | 0.02 to 1 | 1 to 10 | 
51 | CN(C)S(=O)(=O)NC(=O)c1ccc2c(C3CCCCC3)c3n(c2c1)CC(C(=O)N1CCOCC1)=Cc1ccc(Cl)cc1-3 | 0.02 to 1 | 1 to 10 | 
52 | COC(=O)C1=C(C)c2ccccc2-c2c(C3CCCCC3)c3ccc(C(=O)OC)cc3n2C1 | > 1 | 0.01 to 1 | 
53 | CN(C)S(=O)(=O)NC(=O)c1ccc2c(C3CCCCC3)c3n(c2c1)CC(C(=O)N1CCOCC1)=Cc1ccncc1-3 | 0.02 to 1 | 0.01 to 1 | 
54 | COC(=O)c1ccc2c(C3CCCCC3)c3n(c2c1)CC(C(=O)O)=C(C)c1ccccc1-3 | > 1 | 1 to 10 | 
